Laboratory results reported in PubChem BioAssay AID2060893 (Molecular Pharmacology Branch, DTP, NCI, 2025).
“And” between values parts separate entries of the source, which are not always exact repeats. Equal entries are not always repeated.

Test system: K86415-001-R-J1-PDC complex spheroids, viability
Assay: Anticancer human tumor K86415-001-R-J1-PDC patient-derived lung adenocarcinoma cell line growth inhibition [RAS]
Details: for viability, T/C: stronger effect = lower value
Description: RAS pathway inhibitors in Combinations in Complex Spheroids
A high-throughput screen of multi-cell type tumor spheroids was designed to identify active combinations of RAS pathway inhibitors and targeted small molecules. Complex spheroids include a stromal component modeled by human endothelial cells (HUVEC) and fibroblasts modeled by human mesenchymal stem cells (MSCs). The concentration ranges selected for each drug and investigational agent were based upon clinically achievable concentrations if the clinical Cmax of the agent was known.
Compounds. The drugs and investigational agents: abemaciclib (NSC768073), cobimetinib (NSC768068), divarasib (GDC6063, NSC841802), docetaxel (NSC628503), GDC-1971 (RLY-1971, NSC841576), gemcitabine (NSC613327), inavolisib (NSC800729), ipatasertib (NSC767898), KB-0742 (NSC834161), MRTX-1133 (NSC836407), osimertinib (NSC779217), RMC-4630 (NSC839698), RMC-6236 (NSC851965), RMC-6291 (NSC852671), Ro-3306 (NSC812927), sapanisertib (NSC764658), SN-38 (NSC673596), staurosporine (NSC755774), SY5609 (NSC837396), and tovorafenib (DAY101, NSC766906), were obtained from the National Cancer Institute (NCI) Developmental Therapeutics Program Chemical Repository. The FDA-approved anticancer drug set is available from the NCI Developmental Therapeutics Program. […] The stock solutions were prepared in dimethyl sulfoxide (DMSO, Sigma-Aldrich, St. Louis, MO, cat. D2650) at 800-fold the tested concentration and stored at -70 degrees C prior to their use. All drugs and investigational agents were tested over a range starting from a high concentration at or near the clinical Cmax and decreasing in half-log increments. If the clinical Cmax for an agent had not been determined, the highest concentration tested was 10 microM.
Cell Culture. All cells were maintained in an incubator at 37 degrees C and 5% CO2 with 95% humidity. The PDC lines were cultured according to standard operating procedures established by the NCI PDMR. All PDCs were thawed and cultured in Matrigel-coated flasks prepared with a working solution of 1X Ham's F-12 nutrient mix, without supplementation (Invitrogen, Waltham, MA, cat. 11765054), 100 U/mL penicillin-streptomycin (Invitrogen, cat. 15140122), and 2.5% Matrigel (Corning Inc., Corning, NY, cat. 354248) for the first three passages. The 362531-283-R-J2-PDC and 782815-120-R-J1-PDC lines were cultured in 6C/Colon 1B media, which includes advanced DMEM/F-12 (Thermo Fisher Scientific, cat. 12634028), 10 mM HEPES (Thermo Fisher Scientific, cat. 15630080), 1X GlutaMAX supplement (Thermo Fisher Scientific, cat. 35050061), 0.1 mg/mL primocin (InvivoGen, San Diego, CA, cat. ant-pm-2), 10% defined fetal bovine serum, heat inactivated (HyClone Laboratories Inc., Logan, UT, cat. SH30070.03HI), 50% L-WRN conditioned media (ATCC, cat. CRL-3276), 1.25 mM N-Acetyl-L-cysteine (Sigma-Aldrich, cat. A9165), 10 mM nicotinamide (Sigma-Aldrich, cat. N0636), 1X B-27 supplement (Thermo Fisher Scientific, cat. 17504044), 1X N-2 supplement (Thermo Fisher Scientific, cat. 17502048), 50 ng/mL human EGF (Thermo Fisher Scientific, cat. PHG0311), and 10 microM Y-27632 dihydrochloride (Tocris Bioscience, cat. 1254). The K12877-001-R-J1-PDC line was cultured in 6I media, which includes all 6C/Colon 1B media plus 10 ng/mL human FGF-10 (PeproTech, cat. 100-26), 1 ng/mL human FGF-2 (PeproTech, cat. 100-18B), 1 µM prostaglandin E2 (Tocris Bioscience, cat. 2296), […] hydrocortisone (Sigma-Aldrich, cat. H4001), and […] bovine insulin (Sigma-Aldrich, cat. I6634). The K86415-001-R-J1-PDC line was cultured in 6D media, which includes all 6C/Colon 1B media components minus the L-WRN conditioned media. The 485176-168-R4-J1-PDC was cultured in PANC media, which includes all 6C/Colon 1B media plus 100 ng/mL human FGF-10 (PeproTech, cat. 100-26), 500 nM SB-431542 (Selleckchem, cat. S1067), and 10 nM gastrin (Tocris Bioscience, cat. 3006). […]

[1] = compound alone, run of 07/15/2024
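Note: spheroids exposed to agents for seven days before readout.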

Compound | IC50 [1] | IC50 (curve of compound) | IC50 (compound alone, run of 07/09/2024) [nM] | viability, T/C (compound 0.0316 µM) | viability, T/C (compound 0.1 µM) | viability, T/C (compound 0.316 µM) | viability, T/C (compound 1 µM) | viability, T/C (compound 3.16 µM) | viability, T/C (compound 10 µM) | viability, T/C (compound 0.00316 µM) | viability, T/C (compound 0.01 µM) | viability, T/C (compound 0.000316 µM) | viability, T/C (compound 0.001 µM) | viability, T/C (compound 0.000949 µM) | viability, T/C (compound 0.003 µM) | viability, T/C (compound 0.00949 µM) | viability, T/C (compound 0.03 µM) | viability, T/C (compound 0.0949 µM) | viability, T/C (compound 0.3 µM)
C#Cc1c(F)ccc2cc(O)cc(-c3ncc4c(N5CC6CCC(C5)N6)nc(OCC56CCCN5CC(F)C6)nc4c3F)c12 (configuration not stated) | 1.81 µM [middle of 7 runs] | – | – | 101% [middle of 8 runs] | 106% [middle of 8 runs] | 88.2% [middle of 8 runs] | 65.2% [middle of 8 runs] | 38.2% [middle of 8 runs] | 17.8% [middle of 8 runs] | – | – | – | – | – | – | – | – | – | –
C=CC(=O)Nc1cc(Nc2nccc(-c3cn(C)c4ccccc34)n2)c(OC)cc1N(C)CCN(C)C | – | 659 nM [middle of 4 runs] | – | 101% [middle of 4 runs] | 85.1% (2×) and 93.4% and 76.6% | 67.2% [middle of 4 runs] | 40.9% [middle of 4 runs] | – | – | 105% [middle of 4 runs] | 98.8% [middle of 4 runs] | – | – | – | – | – | – | – | –
CC(C)NCC(C(=O)N1CCN(c2ncnc3c2C(C)CC3O)CC1)c1ccc(Cl)cc1 (configuration not stated) | – | – | – | 109% [middle of 4 runs] | – | 97.9% [middle of 4 runs] | 92.2% [middle of 4 runs] | 65% [middle of 4 runs] | 49.1% [middle of 4 runs] | – | – | – | – | – | – | – | – | – | –
CC(C)n1nc(-c2ccc3oc(N)nc3c2)c2c(N)ncnc21 | – | 52.6 nM [middle of 4 runs] | – | 64.5% [middle of 4 runs] | 32.2% [middle of 4 runs] | – | – | – | – | 104% [middle of 4 runs] | 96.1% [middle of 4 runs] | 108% [middle of 4 runs] | 104% [middle of 4 runs] | – | – | – | – | – | –
CCn1c(-c2cc(N3CCN(C)CC3)cnc2C(C)OC)c2c3cc(ccc31)-c1csc(n1)CC(NC(=O)C1CC1C)C(=O)N1CCCC(N1)C(=O)OCC(C)(C)C2 (configuration not stated) | – | – | – | – | – | – | – | – | – | – | – | – | – | 50.3% [middle of 8 runs] | 22.4% [middle of 8 runs] | 10.2% [middle of 8 runs] | 6.3% [middle of 8 runs] | 3.96% [middle of 8 runs] | 3.36% [middle of 8 runs]
C[C@@H](NC(=O)c1ncnc(N)c1Cl)c1ncc(C(=O)Nc2cc(C(F)(F)F)c(Cl)cn2)s1 | – | > 10000 nM | – | 113% [middle of 4 runs] | 113% [middle of 4 runs] | 97.1% and 109% (2×) and 92.8% | 87.8% [middle of 4 runs] | 77.2% [middle of 4 runs] | 64.7% [middle of 4 runs] | – | – | – | – | – | – | – | – | – | –
Nc1ccn(C2OC(CO)C(O)C2(F)F)c(=O)n1 (configuration not stated) | – | 136 nM [middle of 4 runs] | – | 78.7% [middle of 4 runs] | 61.3% [middle of 4 runs] | 31.2% [middle of 4 runs] | 22.3% [middle of 4 runs] | – | – | 106% [middle of 4 runs] | 97.5% [middle of 4 runs] | – | – | – | – | – | – | – | –

Now from value to compound, other results behind:

IC50 [1] | IC50 (curve of compound) | IC50 (compound alone, run of 07/09/2024) [nM] | Compound | viability, T/C (compound 0.0316 µM) | viability, T/C (compound 0.1 µM) | viability, T/C (compound 0.316 µM) | viability, T/C (compound 1 µM) | viability, T/C (compound 3.16 µM) | viability, T/C (compound 10 µM) | viability, T/C (compound 0.00316 µM) | viability, T/C (compound 0.01 µM) | viability, T/C (compound 0.000316 µM) | viability, T/C (compound 0.001 µM) | viability, T/C (compound 0.000949 µM) | viability, T/C (compound 0.003 µM) | viability, T/C (compound 0.00949 µM) | viability, T/C (compound 0.03 µM) | viability, T/C (compound 0.0949 µM) | viability, T/C (compound 0.3 µM)
< 3.16 nM | < 3.16 nM | – | C=CC(=O)N1CCN(c2nc(OCC3CCCN3C)nc3c(F)c(-c4nc(N)cc(C)c4C(F)(F)F)c(Cl)cc23)C(C)C1 (configuration not stated) | 11.5% [middle of 12 runs] | 9.89% [middle of 12 runs] | 10.8% [middle of 12 runs] | 10.7% [middle of 11 runs] | – | – | 18.3% [middle of 12 runs] | 13.4% [middle of 12 runs] | – | – | – | – | – | – | – | –
– | 1.48 µM [middle of 4 runs] | – | CC(Nc1ccc2c(c1)OCCn1cc(N3C(=O)OCC3C(F)F)nc1-2)C(N)=O (configuration not stated) | 94.1% [middle of 4 runs] | 86% [middle of 4 runs] | 71.7% [middle of 4 runs] | 54.5% [middle of 4 runs] | 40.5% [middle of 4 runs] | 29.4% [middle of 4 runs] | – | – | – | – | – | – | – | – | – | –
– | > 300 nM | – | CC1(C)CCC(Nc2ncc(C(F)(F)F)c(-c3c[nH]c4c(P(C)(C)=O)c(C#N)ccc34)n2)CN1 (configuration not stated) | – | – | – | – | – | – | – | – | – | – | 110% and 123% (2×) and 109% | 120% [middle of 4 runs] | 75.7% [middle of 4 runs] | 58.1% [middle of 4 runs] | 60.8% [middle of 4 runs] | 60.1% [middle of 4 runs]
– | 5.04 µM [middle of 4 runs] | – | CC1(O)CCCC1n1c(=O)c(C(F)F)cc2cnc(NC3CCN(S(C)(=O)=O)CC3)nc21 (configuration not stated) | 83.8% and 84.3% and 80.5% (2×) | 87.1% [middle of 4 runs] | 65.7% [middle of 4 runs] | 72% (2×) and 75% and 80.8% | – | 10.4% [middle of 4 runs] | – | – | – | – | – | – | – | – | – | –
– | > 1000 nM | – | CCN1CCN(Cc2ccc(Nc3ncc(F)c(-c4cc(F)c5nc(C)n(C(C)C)c5c4)n3)nc2)CC1 | 78.5% [middle of 4 runs] | 71.3% [middle of 4 runs] | 70.2% [middle of 4 runs] | 71.4% [middle of 4 runs] | – | – | 97.9% [middle of 4 runs] | 90.2% [middle of 4 runs] | – | – | – | – | – | – | – | –
– | 2.52 nM [middle of 4 runs] | – | CCc1c2c(nc3ccc(O)cc13)-c1cc3c(c(=O)n1C2)COC(=O)[C@]3(O)CC | – | – | – | – | – | – | – | – | – | – | 102% (2×) and 97.3% and 88.2% | 38.8% [middle of 4 runs] | 23.2% [middle of 4 runs] | 17.6% [middle of 4 runs] | 13.3% [middle of 4 runs] | 5.27% [middle of 4 runs]
– | – | < 0.949 | CCn1c(-c2cccnc2C(C)OC)c2c3cc(ccc31)N1CCOC(CC(NC(=O)C(C(C)C)N(C)C(=O)C3(F)CCN(C(=O)C#CC(C)(C)N(C)C)CC3)C(=O)N3CCCC(N3)C(=O)OCC(C)(C)C2)C1 (configuration not stated) | – | – | – | – | – | – | – | – | – | – | 41.9% [middle of 8 runs] | 13.8% [middle of 8 runs] | 11.6% [middle of 7 runs] | 12.7% [middle of 8 runs] | 14.9% [middle of 8 runs] | 14% [middle of 8 runs]
– | 68 nM [middle of 4 runs] | – | O=C(c1ccc(F)c(F)c1Nc1ccc(I)cc1F)N1CC(O)([C@@H]2CCCCN2)C1 | 59% [middle of 4 runs] | 46% [middle of 4 runs] | 22.4% [middle of 4 runs] | 8.88% [middle of 4 runs] | – | – | 103% [middle of 4 runs] | 90% [middle of 4 runs] | – | – | – | – | – | – | – | –
